# Measured values as given in patent publication US5126258A (priority 1988, dated 1992).
# Key:
# 21G2 = assay: Hydrolysis of reactant ligands by receptor 21G2; format: biochemical, mouse; design: key to hydrolysis by 21G2, symbol: --: No hydrolysis observed; conditions: pH 8.0; for hydrolysis by 21G2, symbol: 19: 2/5 uM, 21: 5/10 uM receptor/ligand
# Protocol: (§1) ^1 Preliminary initial hydrolyses shown as the percentage of admixed
# (§2) reactant ligand consumed for catalyzed and spontaneous hydrolyses. "--" =
# (§3) No hydrolysis observed. "NT" = Not tried. All reactions were carried out
# (§4) at pH 8.0 in a 50 mM phosphate buffer unless otherwise noted. Hydrolytic
# (§5) percentages were determined by HPLC using a Hitachi model 655A12 liquid
# (§6) chromatograph with a C18 Vydac 201TP54 column, except as noted below.
# (§7) Mixtures of acetonitrile a nd water containing 0.1 percent trichloroaceti
# (§8) acid [28:72-50:50 (v/v)] were used as elutant. Hydrolyses of Compounds 5
# (§9) and 20 were assayed using fluorescence data.
# (§10) ^2 Concentrations of receptor molecules (Rec.) and reactant ligands
# (§11) (Lig.) in micromolar units, presuming a molecular weight of 150,000
# (§12) daltons for each receptor molecule.
# (§13) ^3 Reactant ligand (Lig.) used as substrate.
# (§14) ^4 Time in hours that the reaction was permitted to take place.
# (§15) ^5 Spontaneous hydrolytic percentages for the time period indicated.
# (§16) ^6 Reaction carried out at pH 7.2 in a 50 mM phosphate buffer.
# [1] = tested on: eight monoclonal receptors 21G2, 7E5, 37G2, 13E10, 12C9, 44A2, 17G8 and 22F5; assay: Catalyzed hydrolysis of reactant ligands by the eight QPN1 monoclonal receptors, summary; format: biochemical, mouse; conditions: pH 8.0
# Protocol: Mice were hyperimmunized with the Compound 13-KLH conjugate over a three to four week time period. Sera were assayed in an ELISA using a Compound 13-BSA conjugate bound to microtiter plate wells as the solid-phase antigen. Cloned hybridomas were also screened using that ELISA assay.
# Each of those catalyses could be inhibited by an appropriate analog-ligand. Thus, a relatively high percentage of induced monoclonal receptors was capable of catalyzing an esterolytic reaction. The reason for this relatively high percentage of useful receptors being induced is unknown, but could be due to the presence of phosphonamidate group nitrogen atom, as compared to a phosphonate oxygen atom, or to the quinoline nucleus of the analog-ligand. Those eight catalytic monoclonal receptors and the hybridomas that secrete them are identified by the laboratory designations "QPN1 7E5", "QPN1 12C9", "QPN1 13E10", "QPN1 17G8", "QPN1 21G2", "QPN1 22F5", "QPN1 37G2" and QPN1 44A2. The prefix "QPNI" is sometimes omitted herein when discussing these hybridomas and receptors.
# Amide cleavage for Compounds 14 and 15 was assayed by analyzing for the production of free aminoquinaldine or aminonaphthalene by measuring the increase in the azo dye that results from derivatizing the free aminoquinaldine or aminonapthalene with a diazotization reagent.
# Catalysis reactions were conducted by preparing a reaction admixture of 100 microliters (ul) total volume containing 5 micromolar (uM) monoclonal antibody, 50-75 uM amide reactant ligand substrate and a buffer described hereinafter. The buffer included in the above admixture varied depending upon the pH utilized as follows: pH 5, 10 […] sodium acetate, 10 mM sodium chloride; pH 7.2, 10 mM sodium phosphate, 0.15 molar (M) sodium chloride; pH 8.0; 50 mM sodium phosphate. The amide-containing substrates screened in this assay were added to the above admixture in 1 ul of a 100-fold concentrated stock solution of dimethyl formamide (DMF). Monoclonal antibody was added to the above admixture from a concentrated stock solution. The resulting admixture was placed into the well of a 96 well flat bottom microtiter plate (Costar, Cambridge, Mass.) and maintained in a moist vapor environment chamber at 23 degrees C. The production of aminoquinaldine or aminonaphthalene was then assayed as described below after 2,3,5, or 6 days.
# The aminoquinaldine or aminonapthalene product produced by the catalyzed reaction was measured by first admixing 20 ul of 5M HCl, 80 ul acetone and 10 ul 0.5% (w/v) sodium nitrite to the reaction admixture to form a second admixture and maintaining that second admixture for 3 minutes at room temperature. Thereafter, 10 ul 2.5% (w/v) ammonium sulfamate was added to form a third admixture that was maintained for 2 minutes at room temperature. A still further 10 ul of 0.5% (w/v) N-(1-napthyl)ethylenediamine dihydrochloride was added to form a fourth admixture that was then maintained for 15 minutes at room temperature. Thereafter the resulting azo dye present in the fourth admixture was measured by absorbance spectroscopy at 540 nanometers (nm) for aminoquinaldine using a Model EL 309 Automated Microplate Reader (Bio-Tek Instruments, Winooski, Vt.).
# 22F5 = assay: Hydrolysis of reactant ligands by receptor 22F5; format: biochemical, mouse; design: key to hydrolysis by 22F5, symbol: --: No hydrolysis observed; conditions: pH 8.0; for hydrolysis by 22F5, symbol: 19: 2/5 uM, 21: 5/10 uM receptor/ligand
# Protocol: as §1, §2, §3, §4, §5, §6, §7, §8, §9, §10, §11, §12, §13, §14, §15, §16
# Monoclonal Receptor 22F5 = assay: Kinetics of hydrolysis by receptor 22F5; format: biochemical, mouse
# Text: (§17) Reaction kinetics were studied using three reactant ligands as substrates for monoclonal receptors 37G2 and 22F5. Data from initial rates were consistent with Michaelis-Menten reaction mechanism for a usual enzyme-substrate system. Initial rates were followed using at 271 nm using a U.V.-visible spectorphotometer for Compound 17, and a fluorescence spectrometer for Compounds 5 and 20, using an excitation wavelength of 355 nm and an emission wavelength of 455 nm for both compounds.
# Lineweaver-Burke plots for the catalyzed hydrolysis of Compounds 17, 5 and 20 obtained in the presence and absence of Compound 12i as inhibitor were prepared as discussed for FIG. 4. In particular, Compound 17 was present at concentrations of 1-16 uM with inhibitor concentrations of 100 and 300 nanomolar (nM). Compound 5 was present at concentrations of 1-10 uM with inhibitor concentrations of 100 and 200 nM. Compound 20 was present at concentrations of 2-20 uM with inhibitor concentrations of 25 and 100 nM.
# *Fluorescence assays using Compounds 20 and 5 were carried out in a
# PerkinElmer fluorescence spectrophotometer (moded LS5; Oakbrook, IL) usin
# 200 nanomolar receptor (based on a molecular weight of 150,000 daltons) i
# 50 mM phosphate buffer at a pH value of 8.0. The reactant ligand was
# dissolved in dioxane and admixed in the amounts discussed above. Two
# milliliters of reaction solution were utilized as was a dioxane
# concentration of 2 percent by volume. […]
# 37G2 = assay: Hydrolysis of reactant ligands by receptor 37G2; format: biochemical, mouse; design: key to hydrolysis by 37G2, symbol: --: No hydrolysis observed; conditions: pH 8.0; for hydrolysis by 37G2, symbol: 19: 2/5 uM, 21: 5/10 uM receptor/ligand
# Protocol: as §1, §2, §3, §4, §5, §6, §7, §8, §9, §10, §11, §12, §13, §14, §15, §16
# 13E10 = assay: Hydrolysis of reactant ligands by receptor 13E10; format: biochemical, mouse; design: key to hydrolysis by 13E10, symbol: --: No hydrolysis observed; conditions: pH 8.0; for hydrolysis by 13E10, symbol: 19: 2/5 uM, 21: 5/10 uM receptor/ligand
# Protocol: as §1, §2, §3, §4, §5, §6, §7, §8, §9, §10, §11, §12, §13, §14, §15, §16
# 7E5 = assay: Hydrolysis of reactant ligands by receptor 7E5; format: biochemical, mouse; design: key to hydrolysis by 7E5, symbol: --: No hydrolysis observed; conditions: pH 8.0; for hydrolysis by 7E5, symbol: 19: 2/5 uM, 21: 5/10 uM receptor/ligand
# Protocol: as §1, §2, §3, §4, §5, §6, §7, §8, §9, §10, §11, §12, §13, §14, §15, §16
# 44A2 = assay: Hydrolysis of reactant ligands by receptor 44A2; format: biochemical, mouse; design: key to hydrolysis by 44A2, symbol: --: No hydrolysis observed; conditions: pH 8.0; for hydrolysis by 44A2, symbol: 19: 2/5 uM, 21: 5/10 uM receptor/ligand
# Protocol: as §1, §2, §3, §4, §5, §6, §7, §8, §9, §10, §11, §12, §13, §14, §15, §16
# 1209 = assay: Hydrolysis of reactant ligands by receptor 12C9 (column head prints 1209); format: biochemical, mouse; design: key to hydrolysis by 1209, symbol: --: No hydrolysis observed; conditions: pH 8.0; for hydrolysis by 1209, symbol: 19: 2/5 uM, 21: 5/10 uM receptor/ligand
# Protocol: as §1, §2, §3, §4, §5, §6, §7, §8, §9, §10, §11, §12, §13, §14, §15, §16
# 17G8 = assay: Hydrolysis of reactant ligands by receptor 17G8; format: biochemical, mouse; design: key to hydrolysis by 17G8, symbol: --: No hydrolysis observed; conditions: pH 8.0; for hydrolysis by 17G8, symbol: 19: 2/5 uM, 21: 5/10 uM receptor/ligand
# Protocol: as §1, §2, §3, §4, §5, §6, §7, §8, §9, §10, §11, §12, §13, §14, §15, §16
# [2] = Spontaneous (uncatalyzed, background) hydrolysis; format: physicochemical; design: key to Spon. (spontaneous hydrolysis), symbol: --: No hydrolysis observed; conditions: for Spon. (spontaneous hydrolysis), symbol: pH 8.0
# Protocol: The practical range of pH for the assay is limited by the rapid spontaneous rate of hydrolysis of an ester Compound 5 above pH 8.0. Initially, the ester was used at a concentration that was about four-fold greater than that of the protein, and the mixture was incubated at pH 7.2 for 10 minutes. Any change in fluorescence above background was noted.
# The lack of spectroscopic distinction between such esters and their hydrolysis products recommended a chromatographic analysis of the process. Referring to FIG. 3, a mixture of Compound 7 (5 uM) and the monoclonal antibody from hybridoma P3 6D4 (0.1 uM) in phosphate buffer (50 mM, pH 8.0) was analyzed over time by high performance liquid chromatography (HPLC). The accelerated hydrolysis of the ester was apparent from the decrease of its peak and the concurrent increase in two new peaks that correspond with the expected products. Under these conditions, the ester is completely consumed in 60-80 minutes during which time the background rate accounts for about 12 to 16 percent hydrolysis. The chromatographic profile is the same as that produced by treatment with hog liver esterase.
# ^c The rate constants were determined spectrophotometrically (at 245
# nm) by measuring initial rates at five concentrations of ester.
# as §1, §2, §3, §4, §5, §6, §7, §8, §9, §15, §17
# [3] = receptor/ligand uM, time h: 17 1/10, 2, 18 2/10, 24, 20 2/10, 0.33, 5 1/5, 0.33, 22 5/10, 3.5, preliminary
Structure (SMILES),receptors (of eight) that catalyzed hydrolysis of the compound [1],"hydrolysis by 21G2, symbol (21G2)","hydrolysis by 22F5, symbol (22F5)","hydrolysis by 37G2, symbol (37G2)","hydrolysis by 13E10, symbol (13E10)","hydrolysis by 7E5, symbol (7E5)","hydrolysis by 44A2, symbol (44A2)","hydrolysis by 1209, symbol 1209","hydrolysis by 17G8, symbol (17G8)","Spon. (spontaneous hydrolysis), symbol [2]",other results
CC(=O)Nc1ccc(CC(=O)Oc2ccc3c(C)cc(=O)oc3c2)cc1 [Compound 20],Only those same five receptors,,,,,,,,,,"hydrolysis by 21G2 (21G2; [3]): 36 percentage of reactant ligand; hydrolysis by 22F5 (22F5; [3]): 48 percentage of reactant ligand; Km (Monoclonal Receptor 22F5; 50 mM phosphate pH 8.0, 200 nM receptor, 2% dioxane, figure = Km × 10^6): 5 µM; kcat (Monoclonal Receptor 22F5; pH 8.0): 0.023 s⁻¹; Vmax (Monoclonal Receptor 22F5; pH 8.0, 200 nM receptor, figure = Vmax × 10^9): 0.27 µM/min; hydrolysis by 37G2 (37G2; [3]): 39 percentage of reactant ligand; hydrolysis by 13E10 (13E10; [3]): 16 percentage of reactant ligand; hydrolysis by 7E5 (7E5; [3]): 15 percentage of reactant ligand; hydrolysis by 44A2 (44A2; [3]): 33 percentage of reactant ligand; hydrolysis by 1209 1209; [3]: 16 percentage of reactant ligand; hydrolysis by 17G8 (17G8; receptor/ligand uM, time h: 18 2/10, 24, 20 2/10, 0.33, 5 1/5, 0.33, 22 5/10, 3.5, preliminary): 20 percentage of reactant ligand; Spon. (spontaneous hydrolysis) ([2]; pH 8.0, 50 mM phosphate, time (h): 17 2, 18 24, 20 0.33, 5 0.33, 22 3.5): 14 percentage of reactant ligand"
CC(=O)Nc1ccc(CC(=O)Nc2cccc3ccc(C)nc23)cc1 [Compound 14],none of the receptors catalyzed hydrolysis,--,--,--,--,--,--,--,--,--,
CC(=O)Nc1ccc(CC(=O)Nc2cccc3ccccc23)cc1 [Compound 15],none of the receptors catalyzed hydrolysis,--,--,--,--,--,--,--,--,--,
